Assay results from patent US9115073B2, “1,3-diphenylpropane derivatives, preparations and uses thereof” (GENFIT, priority 2011, dated 2015).

What was measured:
Type in all cases: cell-based
hPPARalpha = molecular target: T1, hPPARalpha (Homo sapiens, UniProt Q07869); experiment: Gal4-hPPARalpha transactivation assay in COS-7 cells (luciferase); settings: for EC50: Gal4-hPPARα(LBD) transactivation; for Emax: COS-7, maximal relative activation vs reference, read-out: Gal4-hPPARα(LBD) TOP (% ref); for Gal4-hPPARα(LBD) TOP (% ref): maximal relative activation vs reference
T1 construct: Gal4-hPPARα(LBD); Gal4 (fusion partner); expressed in transfected cells; host or cells: COS-7 (monkey kidney)
T1 sequence (Q07869 239-466 limits assumed): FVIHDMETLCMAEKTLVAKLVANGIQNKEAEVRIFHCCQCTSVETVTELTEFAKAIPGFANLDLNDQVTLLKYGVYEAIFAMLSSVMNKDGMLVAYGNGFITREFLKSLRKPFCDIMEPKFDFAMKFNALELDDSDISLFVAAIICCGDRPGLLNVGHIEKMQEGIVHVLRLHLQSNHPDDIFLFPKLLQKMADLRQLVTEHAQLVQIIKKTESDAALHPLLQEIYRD
Experimental: (§1) Monkey kidney COS-7 cells were maintained in standard culture conditions (Dulbecco's modified Eagle's minimal medium: DMEM) supplemented with 10% fetal calf serum, 1% sodium pyruvate, 1% essential amino acids and 1% antibiotics at 37° C. in a humidified atmosphere of 5% C02 and 95% air. The medium was changed every 2 days. All tested compounds were dissolved in DMSO. Cells were transfected using 2 μl JetPEI™ (Polyplus transfection)/μg of DNA. Briefly, 40 μg of DNA was transfected in a 225 cm^2 culture flask of adherent COS-7 cells (respecting the 1/50 ratio between the Gal4(RE)_TkpGL3 plasmid and the plasmid coding the nuclear receptor of interest (pGal4-hPPARalpha, pGal4-hPPARgamma, pGal4-hPPARdelta, pGal4-mPPARalpha, pGal4-mPPARgamma and pGal4-mPPARdelta) or of the pGal4phi plasmid (negative control). Cells were enzymatically detached and seeded in 384 well plates at the density of 20,000 cells/well and then incubated for 4 hours at 37° C. The activation was automatically performed, by using the Genesis Freedom 200™ (Tecan), in fresh medium supplemented with 2% of synthetic serum, free of lipids (Ultroser™, Biosepra) supplemented with the tested compounds (compound of interest or reference molecules) or vehicle (DMSO 0.1%). The luciferase activity was measured with the Steady-Glo Luciferase Assay System (Promega, Madison, Wis.). All transactivation experiments were performed at least 2 times. Activation curves were realized using SigmaPlot® (version 7.0 from SPSS Inc.) software and took into account all the experimental points. SimgaPlot® was also used to fit the standard curves and then determine the specific EC50 values, maximum effect versus reference molecules and Hill slope. The Emax effect of each new ligand is represented as the ratio of the maximal induction (plateau) obtained with the new ligand and the induction obtained with the corresponding reference compound. The reference compounds for PPARalpha, PPARgamma and PPARdelta were fenofibrate (100 μM), rosiglitazone (10 μM) and GW501516 (1 μM).

hPPARgamma = molecular target: T2, hPPARgamma (Homo sapiens, UniProt P37231); experiment: Gal4-hPPARgamma transactivation assay in COS-7 cells (luciferase); settings: for EC50: Gal4-hPPARγ(LBD) transactivation; for Emax: COS-7, maximal relative activation vs reference, read-out: Gal4-hPPARγ(LBD) TOP (% ref); for Gal4-hPPARγ(LBD) TOP (% ref): maximal relative activation vs reference
T2 construct: Gal4-hPPARγ(LBD); Gal4 (fusion partner); expressed in transfected cells; host or cells: COS-7 (monkey kidney)
T2 sequence (P37231 238-503 limits assumed): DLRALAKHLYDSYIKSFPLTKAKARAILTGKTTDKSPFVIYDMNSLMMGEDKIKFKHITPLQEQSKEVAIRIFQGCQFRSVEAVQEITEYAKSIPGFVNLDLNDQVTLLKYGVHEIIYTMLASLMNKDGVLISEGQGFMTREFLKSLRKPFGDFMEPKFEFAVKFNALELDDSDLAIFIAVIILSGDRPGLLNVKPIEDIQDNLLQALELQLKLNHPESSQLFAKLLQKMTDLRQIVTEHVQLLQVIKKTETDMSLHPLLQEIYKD
Experimental: as §1

hPPARdelta = molecular target: T3, hPPARdelta (Homo sapiens, UniProt Q03181); experiment: Gal4-hPPARdelta transactivation assay in COS-7 cells (luciferase); settings: for EC50: Gal4-hPPARδ(LBD) transactivation; for Gal4-hPPARδ(LBD) TOP (% ref): maximal relative activation vs reference; for Emax: COS-7, maximal relative activation vs reference, read-out: Gal4-hPPARδ(LBD) TOP (% ref)
T3 construct: Gal4-hPPARδ(LBD); Gal4 (fusion partner); expressed in transfected cells; host or cells: COS-7 (monkey kidney)
T3 sequence (Q03181 211-439 limits assumed): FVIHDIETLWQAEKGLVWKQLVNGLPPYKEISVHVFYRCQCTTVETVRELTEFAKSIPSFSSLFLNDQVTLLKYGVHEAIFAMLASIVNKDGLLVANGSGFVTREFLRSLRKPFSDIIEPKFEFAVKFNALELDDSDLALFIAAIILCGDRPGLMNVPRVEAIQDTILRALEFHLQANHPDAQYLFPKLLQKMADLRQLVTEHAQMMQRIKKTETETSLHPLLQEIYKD
Experimental: as §1

Compound	EC50 (hPPARalpha) [nM]	EC50 (hPPARgamma) [nM]	EC50 (hPPARdelta) [nM]	Emax (hPPARalpha) [%]	Emax (hPPARgamma) [%]	Emax (hPPARdelta) [%]	other results
COC(c1ccc(SC)cc1)C1CC1c1cc(C)c(OC(C)(C)C(=O)O)c(C)c1 (single isomer, unassigned) [Cpd 3-2, 2-(4-(2-(methoxy(4-(methylthio)phenyl)methyl)cyclopropyl)-2,6-dimethylphenoxy)-2-methylpropanoic acid]	139	18	169	–	–	–	–
COC(c1ccc(OC(F)(F)F)cc1)C1CC1c1ccc(OC(C)(C)C(=O)O)c(Br)c1 (racemic) [Cpd 19-1, 2-(2-bromo-4-(2-(methoxy(4-(trifluoromethoxy)phenyl)methyl)cyclopropyl)phenoxy)-2-methylpropanoic acid]	157	97	26	53	64	100	–
COC(c1ccccc1OC(F)(F)F)C1CC1c1cc(C)c(OC(C)(C)C(=O)O)c(C)c1 (racemic) [Cpd 13-2, 2-(4-(2-(methoxy(2-(trifluoromethyloxy)phenyl)methyl)cyclopropyl)-2,6-dimethylphenoxy)-2-methylpropanoic acid]	–	–	–	–	–	–	Gal4-hPPARα(LBD) TOP (% ref) (hPPARalpha): 28 % ref; Gal4-hPPARγ(LBD) TOP (% ref) (hPPARgamma): 71 % ref; Gal4-hPPARδ(LBD) TOP (% ref) (hPPARdelta): 57 % ref
COC(c1ccc(OC(F)(F)F)cc1)C1CC1c1ccc(OC(C)(C)C(=O)O)c(C(C)C)c1 (racemic) [Cpd 15-2, 2-(2-isopropyl-4-(2-(methoxy(4-(trifluoromethoxy)phenyl)methyl)cyclopropyl)phenoxy)-2-methylpropanoic acid]	–	–	–	–	–	–	Gal4-hPPARα(LBD) TOP (% ref) (hPPARalpha): 31 % ref; Gal4-hPPARγ(LBD) TOP (% ref) (hPPARgamma): 69 % ref; Gal4-hPPARδ(LBD) TOP (% ref) (hPPARdelta): 96 % ref
Cc1cc(C2CC2C(OCc2ccccc2)c2ccc(OC(F)(F)F)cc2)cc(C)c1OC(C)(C)C(=O)O (racemic) [Cpd 11-2, 2-(4-(2-(benzyloxy(4-(trifluoromethoxy)phenyl)methyl)cyclopropyl)-2,6-dimethylphenoxy)-2-methylpropanoic acid]	–	–	–	–	–	–	Gal4-hPPARα(LBD) TOP (% ref) (hPPARalpha): 42 % ref; Gal4-hPPARγ(LBD) TOP (% ref) (hPPARgamma): 87 % ref; Gal4-hPPARδ(LBD) TOP (% ref) (hPPARdelta): 67 % ref
COC(c1ccc(Br)cc1)C1CC1c1cc(C)c(OC(C)(C)C(=O)O)c(C)c1 (racemic) [Cpd 1-2, 2-(4-(2-(methoxy(4-bromophenyl)methyl)cyclopropyl)-2,6-dimethylphenoxy)-2-methylpropanoic acid]	186	19	54	–	–	–	Gal4-hPPARα(LBD) TOP (% ref) (hPPARalpha): 33 % ref; Gal4-hPPARγ(LBD) TOP (% ref) (hPPARgamma): 77 % ref; Gal4-hPPARδ(LBD) TOP (% ref) (hPPARdelta): 83 % ref
COC(c1ccc(C(F)(F)F)cc1F)C1CC1c1cc(C)c(OC(C)(C)C(=O)O)c(C)c1 (single isomer, unassigned) [Cpd 12-1, 2-(4-(2-(methoxy(2-fluoro-4-(trifluoromethyl)phenyl)methyl)cyclopropyl)-2,6-dimethylphenoxy)-2-methylpropanoic acid]	53	12	7	47	71	89	–
COC(c1ccc(C(F)(F)F)cc1C(F)(F)F)C1CC1c1cc(C)c(OC(C)(C)C(=O)O)c(C)c1 (single isomer, unassigned) [Cpd 16-1, 2-(4-(2-((2,4-bis(trifluoromethyl)phenyl)(methoxy)methyl)cyclopropyl)-2,6-dimethylphenoxy)-2-methylpropanoic acid]	108	14	44	40	80	60	–
COC(c1ccc(OC(F)(F)F)cc1)C1CC1c1ccc(OC(C)(C)C(=O)O)c(C)c1 (racemic) [Cpd 7-1, 2-(4-(2-(methoxy(4-(trifluoromethoxy)phenyl)methyl)cyclopropyl)-2-methylphenoxy)-2-methylpropanoic acid]	265	45	35	42	55	90	–

Further lines, with some results ahead:

EC50 (hPPARalpha) [nM]	EC50 (hPPARgamma) [nM]	EC50 (hPPARdelta) [nM]	Emax (hPPARalpha) [%]	Emax (hPPARgamma) [%]	Emax (hPPARdelta) [%]	Compound	other results
–	16	–	44	90	–	COC(c1ccc(OC(F)(F)F)cc1)C1CC1c1cc(C)c(OC(C)(C)C(=O)O)c(C)c1 (stereo not drawn) [Cpd 14-2-1, 2-(4-(2-(methoxy(4-(trifluoromethoxy)phenyl)methyl)cyclopropyl)-2,6-dimethylphenoxy)-2-methylpropanoic acid]	EC50 (hPPARalpha; listed as cpd 14-2-1): 50 nM; EC50 (hPPARdelta; listed as cpd 14-2-1): 19 nM; Gal4-hPPARδ(LBD) TOP (% ref) (hPPARdelta; listed as cpd 14-2-1): 78 % ref
68	94	100	36	71	72	Cc1cc(C2CC2C(OCCC2CCCCC2)c2ccc(OC(F)(F)F)cc2)cc(C)c1OC(C)(C)C(=O)O (racemic) [Cpd 6-1, 2-(4-(2-(cyclohexylethyloxy(4-(trifluoromethoxy)phenyl)methyl)cyclopropyl)-2,6-dimethylphenoxy)-2-methylpropanoic acid]	–
145	46	123	–	–	–	COC(c1ccc(OC(F)(F)F)cc1)C1CC1c1ccc(OC(C)(C)C(=O)O)c(C(C)C)c1 (single isomer, unassigned) [Cpd 15-2, 2-(2-isopropyl-4-(2-(methoxy(4-(trifluoromethoxy)phenyl)methyl)cyclopropyl)phenoxy)-2-methylpropanoic acid]	–
47	143	34	44	84	62	CCCCOC(c1ccc(OC(F)(F)F)cc1)C1CC1c1cc(C)c(OC(C)(C)C(=O)O)c(C)c1 (single isomer, unassigned) [Cpd 5-1, 2-(4-(2-(butyloxy(4-(trifluoromethoxy)phenyl)methyl)cyclopropyl)-2,6-dimethylphenoxy)-2-methylpropanoic acid]	–
652	72	328	26	72	59	COC(c1ccccc1OC(F)(F)F)C1CC1c1cc(C)c(OC(C)(C)C(=O)O)c(C)c1 (single isomer, unassigned) [Cpd 13-1, 2-(4-(2-(methoxy(2-(trifluoromethyloxy)phenyl)methyl)cyclopropyl)-2,6-dimethylphenoxy)-2-methylpropanoic acid]	–
211	81	27	–	–	–	COC(c1ccc(OC(F)(F)F)cc1)C1CC1c1cc(C)c(OC(C)(C)C(=O)O)c(C)c1 (single isomer, unassigned) [Cpd 14-1-1, 2-(4-(2-(methoxy(4-(trifluoromethoxy)phenyl)methyl)cyclopropyl)-2,6-dimethylphenoxy)-2-methylpropanoic acid]	Gal4-hPPARα(LBD) TOP (% ref) (hPPARalpha; listed as cpd 14-1-1): 43 % ref; Gal4-hPPARγ(LBD) TOP (% ref) (hPPARgamma; listed as cpd 14-1-1): 78 % ref; Gal4-hPPARδ(LBD) TOP (% ref) (hPPARdelta; listed as cpd 14-1-1): 67 % ref
